The source of these data is ChEMBL document CHEMBL5512647, “Cajaninstilbene acid derivatives conjugated with siderophores of 3-hydroxypyridin-4(1H)-ones as novel antibacterial agents against Gram-negative bacteria based on the Trojan horse strategy” (Eur J Med Chem, 2024).

SMILES strings stand for the structures. ≈ marks a conversion by molar mass, not a printed value. Calls of active or inactive are those of the source.

Data set [1] in a line: Acute toxicity in L4 stage of Caenorhabditis elegans at 12.5 to 50 uM. The following applies: dose 12.5-50 µM.
Data set [2] has as its system Pseudomonas aeruginosa. Put plainly: Antibacterial activity against Pseudomonas aeruginosa PAO1 measured after 18 to 20 hrs in presence of FeIII cultured under CAA medium by broth microdilution method. The format is functional. Particulars: time 18-20 hrs. Background: Dilution methods test growth across graded concentrations, often in twofold steps.
A short description of data set [3]: Cytotoxicity against African green monkey Vero cells at 50 uM measured after 24 hrs by MTT assay. Type of data set: toxicity, cell-based. The following applies: chlorocebus sabaeus. (Tetrazolium assays rely on reduction of a dye to a coloured formazan, in cell work by metabolically active cells.)
For data set [4], the system named is Pseudomonas aeruginosa. Description: Antibacterial activity against Pseudomonas aeruginosa PAO1 measured after 18 to 20 hrs by broth microdilution method. Type of data set: functional. Particulars: time 18-20 hrs.
Data set [5] is described as follows: Metal chelating activity assessed as compound-Fe3+ complex formation incubated for 10 mins by CAS assay.
Data set [6] concerns Cell membrane. Description: Induction of cytoplasmic membrane permeabilization in Pseudomonas aeruginosa PAO1 assessed as disruption of cell membrane integrity by measuring increase in number of dead cells measured after 2 hrs by PI and SYTO9 staining based confocal laser scanning microscopy analysis. The format is cell membranes.
Data set [7] relates to Pseudomonas aeruginosa. Put plainly: Antibacterial activity against Pseudomonas aeruginosa 1121 measured after 18 to 20 hrs by broth microdilution method. The following applies: time 18-20 hrs. The format is functional.
Data set [8] relates to Pseudomonas aeruginosa. Put plainly: Antibacterial activity against Pseudomonas aeruginosa PAO1 overexpressing fpvA mutant assessed as fold increase in MIC measured after 18 to 20 hrs by broth microdilution method. The format is functional. Particulars: time 18-20 hrs.
Data set [9] deals with Escherichia coli. Description: Antibacterial activity against Escherichia coli ATCC 25922 measured after 18 to 20 hrs by broth microdilution method. Type of data set: functional. The following applies: time 18-20 hrs.
In data set [10] the test system is Pseudomonas aeruginosa. Description: Antibacterial activity against Pseudomonas aeruginosa PAO1 infected in Caenorhabditis elegans assessed as survival rate at 12.5 to 50 uM measured upto 72 hrs relative to control. The following applies: dose 12.5-50 µM. Type of data set: functional.
Data set [11] concerns Pseudomonas aeruginosa. Description: Antibacterial activity against Pseudomonas aeruginosa PAO1 infected in Caenorhabditis elegans assessed as improvement in survival rate at 12.5 to 50 uM measured upto 72 hrs. Type of data set: functional, organism-based. The following applies: dose 12.5-50 µM.
For data set [12], the system named is Pseudomonas aeruginosa. Description: Antibacterial activity against Pseudomonas aeruginosa 27853 measured after 18 to 20 hrs by broth microdilution method. The format is functional. Particulars: time 18-20 hrs.
The test system of data set [13] is Escherichia coli. Put plainly: Antibacterial activity against Escherichia coli ATCC 25922 measured after 18 to 20 hrs in presence of FeIII cultured under CAA medium by broth microdilution method. The format is functional. The following applies: time 18-20 hrs.
The subject of data set [14] is Cell membrane. Description: Induction of outer membrane permeabilization in Pseudomonas aeruginosa PAO1 assessed as increase in accumulation of NPN by measuring fluorescence intensity measured for 1 hr by NPN dye uptake assay. Type of data set: cell membranes.
Data set [15] has as its system Pseudomonas aeruginosa. Put plainly: Antibacterial activity against Pseudomonas aeruginosa PAO1 delta-pvds measured after 18 to 20 hrs by broth microdilution method. The format is functional, organism-based. The following applies: time 18-20 hrs.
Data set [16] has as its system Klebsiella pneumoniae. Description: Antibacterial activity against Klebsiella pneumoniae ATCC 700603 measured after 18 to 20 hrs in presence of FeIII cultured under CAA medium by broth microdilution method. Type of data set: functional. Particulars: time 18-20 hrs.
The test system of data set [17] is Pseudomonas aeruginosa. Put plainly: Antibacterial activity against Pseudomonas aeruginosa FB measured after 18 to 20 hrs by broth microdilution method. The format is functional. Particulars: time 18-20 hrs.
Data set [18] concerns Pseudomonas aeruginosa. Put plainly: Antibacterial activity against Pseudomonas aeruginosa 27853 measured after 18 to 20 hrs in presence of FeIII cultured under CAA medium by broth microdilution method. Type of data set: functional. Particulars: time 18-20 hrs.
A further data set has as its system Erythrocyte. Put plainly: Hemolytic activity in rabbit red blood cells assessed as hemolysis at 12.5 to 50 uM measured after 2 hrs by microplate reader based analysis. Type of data set: toxicity, cell-based, Oryctolagus cuniculus. Particulars: dose 12.5-50 µM.
Data set [19] can be described thus: Cytotoxicity against African green monkey Vero cells at 100 uM measured after 24 hrs by MTT assay. Particulars: chlorocebus sabaeus. Type of data set: toxicity, cell-based.
The test system of data set [20] is Klebsiella pneumoniae. Put plainly: Antibacterial activity against Klebsiella pneumoniae ATCC 700603 measured after 18 to 20 hrs by broth microdilution method. Type of data set: functional. Particulars: time 18-20 hrs.
The test system of a further data set is Staphylococcus aureus. Put plainly: Antibacterial activity against Staphylococcus aureus ATCC 25923 measured after 18 to 20 hrs by broth microdilution method. Particulars: time 18-20 hrs. The format is functional.
Data set [21] deals with Pseudomonas aeruginosa. Put plainly: Antibacterial activity against Pseudomonas aeruginosa PAO1 infected in Caenorhabditis elegans assessed as improvement in survival rate at 50 uM measured after 72 hrs. The format is functional, organism-based.

Usually MIC stands for the smallest concentration in the dilution series that meets the test's criterion for growth inhibition. Regarding `CC(C)=CCc1c(OCCCCCCC(=O)NCc2cc(=O)c(O)cn2C)cc(/C=C/c2ccc(F)cc2)c(C(=O)O)c1O`, the Activity entry is “Non-Toxic” in [1]; “Non-Toxic” in data set [3]; “Dose-Dependent Effect” in the data set on Cell membrane [6]; “Dose-Dependent Effect” in the data set on Cell membrane [14]; “Non-Toxic” in the data set on Erythrocyte; “Toxic” in [19]. Further, the MIC in the data set on Pseudomonas aeruginosa [2] was over 250 µM; with Pseudomonas aeruginosa [4] it was 7.8 µM (≈ 4.73 µg/mL); against Pseudomonas aeruginosa [7], 15.6 µM (≈ 9.46 µg/mL); in the data set on Escherichia coli [9] it was over 250 µM; with Pseudomonas aeruginosa [12], 15.6 µM (≈ 9.46 µg/mL); in the data set on Escherichia coli [13], over 250 µM. Also, the MIC with Klebsiella pneumoniae [16] was over 250 µM; with Pseudomonas aeruginosa [17] it was 31.2 µM (≈ 19 µg/mL); in the data set with Pseudomonas aeruginosa [18], over 250 µM; against Klebsiella pneumoniae [20], over 250 µM; in the data set with Staphylococcus aureus it was over 250 µM. In addition, the result (in [5]; in the data set on Pseudomonas aeruginosa [11]; in the data set with Pseudomonas aeruginosa [15]) was Active. In addition, the “fold change (FC)” value in the data set on Pseudomonas aeruginosa [8] worked out at 4. Further, the Survival in the data set on Pseudomonas aeruginosa [10] is 50%.

On to `CC(C)=CCc1c(OCCCCCCCC(=O)NCc2cc(=O)c(O)cn2C)cc(/C=C/c2ccc(F)cc2)c(C(=O)O)c1O`, for which the Activity result in data set [1] was “Non-Toxic”; in data set [3], “Non-Toxic”; in the data set on Cell membrane [6], “Dose-Dependent Effect”; in the data set with Erythrocyte it was “Non-Toxic”; in data set [19] it was “Toxic”. Also, the minimal inhibitory concentration (MIC) in the data set with Pseudomonas aeruginosa [2] was over 250 µM; against Pseudomonas aeruginosa [4], 7.8 µM (≈ 4.84 µg/mL); against Pseudomonas aeruginosa [7] it was 15.6 µM (≈ 9.68 µg/mL); in the data set with Escherichia coli [9] it was over 250 µM; in the data set on Pseudomonas aeruginosa [12] it was 15.6 µM (≈ 9.68 µg/mL); in the data set with Escherichia coli [13], over 250 µM. Further, the MIC was over 250 µM in the data set on Klebsiella pneumoniae [16]; 31.2 µM (≈ 19.4 µg/mL) in the data set with Pseudomonas aeruginosa [17]; over 250 µM in the data set with Pseudomonas aeruginosa [18]; over 250 µM against Klebsiella pneumoniae [20]; over 250 µM against Staphylococcus aureus. The outcome (in data set [5]; in the data set on Pseudomonas aeruginosa [11]; in the data set with Cell membrane [14]; in the data set with Pseudomonas aeruginosa [15]) was Active. In the data set with Pseudomonas aeruginosa [8], the “fold change (FC)” value amounted to 4. For the same molecule, the Survival in the data set on Pseudomonas aeruginosa [10] amounted to 50%.

Take `COc1cc(/C=C/c2ccc(F)cc2)c(C(=O)O)c(O)c1CC=C(C)C`: the MIC in the data set on Pseudomonas aeruginosa [2], in the data set on Pseudomonas aeruginosa [4], in the data set on Pseudomonas aeruginosa [7], with Escherichia coli [9], in the data set with Pseudomonas aeruginosa [12] and in the data set on Escherichia coli [13] was over 250 µM each time. Further, the MIC is over 250 µM in the data set on Klebsiella pneumoniae [16]; over 250 µM against Pseudomonas aeruginosa [17]; over 250 µM in the data set with Pseudomonas aeruginosa [18]; over 250 µM against Klebsiella pneumoniae [20]; 15.6 µM (≈ 5.56 µg/mL) in the data set with Staphylococcus aureus. For the same molecule, in [3], the Activity entry was “Non-Toxic”. The result (in data set [5]; in the data set on Pseudomonas aeruginosa [21]) was inactive.
